As a reminder, the pKd is the negative decadic logarithm of the Kd, by convention in mol/L. One may read the viability as a read-out of living cells in per cent, often relative to untreated cells. Broadly, the pEC50 is the EC50 on a negative log10 scale, so that one unit is a factor of ten.

pEC50, pKd: −log10 of the molar value. Where a SMILES comes first, the peptide text is derived from it. A value given as a limit tells only on which side of the number the result lay.

The values that follow come from patent US12441768B2, “Compositions and methods for treating endometriosis” (EndoMet Biosciences, Inc., priority 2018, dated 2025).

In data set [1] the target is T1, β-catenin (Homo sapiens, UniProt P35222).
T1 sequence (P35222 1-781): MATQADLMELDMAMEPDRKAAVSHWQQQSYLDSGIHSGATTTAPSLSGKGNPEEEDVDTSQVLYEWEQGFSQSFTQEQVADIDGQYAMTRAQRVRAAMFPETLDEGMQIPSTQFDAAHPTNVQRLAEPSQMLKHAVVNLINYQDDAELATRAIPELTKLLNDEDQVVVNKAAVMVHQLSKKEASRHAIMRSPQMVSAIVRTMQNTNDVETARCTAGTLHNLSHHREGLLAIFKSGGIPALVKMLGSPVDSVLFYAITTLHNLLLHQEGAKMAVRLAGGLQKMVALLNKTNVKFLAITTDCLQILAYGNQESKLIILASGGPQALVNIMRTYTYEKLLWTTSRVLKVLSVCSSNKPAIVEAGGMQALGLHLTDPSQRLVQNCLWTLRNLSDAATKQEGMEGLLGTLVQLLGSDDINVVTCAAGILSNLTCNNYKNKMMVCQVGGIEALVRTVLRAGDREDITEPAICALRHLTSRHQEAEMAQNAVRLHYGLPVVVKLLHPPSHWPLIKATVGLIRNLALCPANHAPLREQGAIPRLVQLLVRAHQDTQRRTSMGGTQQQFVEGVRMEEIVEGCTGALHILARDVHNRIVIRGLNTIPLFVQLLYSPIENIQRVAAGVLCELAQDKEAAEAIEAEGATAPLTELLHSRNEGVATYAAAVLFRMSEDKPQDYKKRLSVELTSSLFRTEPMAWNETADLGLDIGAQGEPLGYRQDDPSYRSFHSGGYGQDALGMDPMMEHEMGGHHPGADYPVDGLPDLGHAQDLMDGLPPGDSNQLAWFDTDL
As to the kind of experiment: KD50 measurement using competitive fluorescence polarization (FP) with labelled TCF4. It is filed as binding. The following applies: fluorescence polarization, β-catenin; for pKd: read-out: β-Cat FP KD. A digest of the protocol:
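Labelled TCF4 (5 nM) mixed with 100 nM β-catenin at room temperature; inhibitor added as serial dilutions from 10 nM to 30 uM. Polarization read at excitation 470 nm/emission 520 nm; binding displacement lowers polarization. Three independent runs.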
(In general: Fluorescence polarisation rises when a labelled molecule tumbles more slowly, as on binding a larger partner.)

The conditions of data set [2]: % Viability non-Wnt responsive cells.
The target in data set [3] is Wnt-responsive promoter (TCF/LEF). Description: Wnt-dependent luciferase reporter assay. It is filed as cell-based, murine. Put shortly:
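EC50 (uM) derived from inhibition of luminescence in Wnt3a-stimulated murine 3T3 cells expressing luciferase under a TCF/LEF promoter, with peptides added across a concentration range and vehicle as control.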

As to `CC[C@H](C)[C@H](NC(=O)[C@H](CC(C)C)NC(=O)[C@H](Cc1ccccc1)NC(=O)[C@H](Cc1c[nH]c2ccccc12)NC(=O)[C@@H](NC(=O)[C@H](CCCNC(=N)N)NC(=O)[C@H](CO)NC(=O)[C@@H](N)CCSC)C(C)C)C(=O)N[C@@H](CO)C(=O)N[C@@H](Cc1ccccc1)C(=O)N[C@@H](Cc1c[nH]c2ccccc12)C(=O)NCC(=O)O` [compound 64] (H-MSRVWFLISFWG-OH), in data set [1], the “β-Cat FP Hill slope” value stood at 0.7 and the negative-log Kd (pKd) was 5.00 to 6.00. Also, in data set [2], the viability is 104%. Further, the negative-log EC50 (pEC50) in data set [3] was 4.82 to 5.12.

`CC[C@H](C)[C@H](NC(=O)[C@@H]1CCCN1C(=O)[C@H](Cc1ccccc1)NC(=O)[C@H](Cc1c[nH]c2ccccc12)NC(=O)[C@H](CCSC)NC(=O)[C@H](CCCNC(=N)N)NC(=O)[C@H](CO)NC(=O)[C@@H](N)CCSC)C(=O)N[C@@H](CO)C(=O)N[C@@H](Cc1ccccc1)C(=O)N[C@@H](Cc1c[nH]c2ccccc12)C(=O)NCC(=O)O` [compound 65] (H-MSRMWFPISFWG-OH): in data set [1], the “β-Cat FP Hill slope” value is 0.7 and the pKd was 5.00 to 6.00. Besides, the viability in data set [2] was 105%. Also, the pEC50 in data set [3] is < 4.52.

For the molecule `CC[C@H](C)[C@H](NC(=O)[C@H](CC(C)C)NC(=O)[C@H](Cc1ccc(O)cc1)NC(=O)[C@H](Cc1c[nH]c2ccccc12)NC(=O)[C@H](CCSC)NC(=O)[C@H](CCCNC(=N)N)NC(=O)[C@H](CO)NC(=O)[C@@H](N)CCSC)C(=O)N[C@@H](CO)C(=O)N[C@@H](Cc1ccccc1)C(=O)N[C@@H](Cc1c[nH]c2ccccc12)C(=O)NCC(=O)O` [compound 66] (H-MSRMWYLISFWG-OH), in data set [1], the “β-Cat FP Hill slope” value is reported as 0.7 and the pKd is 4.52 to 5.00. Moreover, in data set [2], the viability is 98.6%. Also, the negative-log EC50 (pEC50) in data set [3] is 4.82 to 5.12.

On to `CC[C@H](C)[C@H](NC(=O)[C@H](CC(C)C)NC(=O)[C@H](Cc1ccccc1)NC(=O)[C@H](Cc1c[nH]c2ccccc12)NC(=O)[C@H](CCSC)NC(=O)[C@H](CCCNC(=N)N)NC(=O)CNC(=O)[C@@H](N)CCSC)C(=O)N[C@@H](CO)C(=O)N[C@@H](Cc1ccccc1)C(=O)N[C@@H](Cc1c[nH]c2ccccc12)C(=O)NCC(=O)O` [compound 67] (H-MGRMWFLISFWG-OH), for which, in data set [1], the “β-Cat FP Hill slope” value is recorded as 0.99 and the negative logarithm of the Kd (pKd) was 5.00 to 6.00. Moreover, the viability in data set [2] was found to be 101%. Moreover, the pEC50 in data set [3] is > 5.12.

In the case of `CC[C@H](C)[C@H](NC(=O)[C@H](CC(C)C)NC(=O)[C@H](Cc1ccccc1)NC(=O)[C@H](Cc1c[nH]c2ccccc12)NC(=O)[C@H](CCSC)NC(=O)[C@H](CCCNC(=N)N)NC(=O)[C@H](CO)NC(=O)[C@@H](N)CCSC)C(=O)N[C@@H](CO)C(=O)N[C@@H](CC(C)C)C(=O)N[C@@H](Cc1c[nH]c2ccccc12)C(=O)NCC(=O)O` [compound 68] (H-MSRMWFLISLWG-OH), in data set [1], the negative logarithm of the Kd (pKd) is < 4.52. The viability in data set [2] turned out to be 91.2%. For the same molecule, the pEC50 in data set [3] is 4.82 to 5.12.

On to `CC[C@H](C)[C@H](NC(=O)[C@H](CC(C)C)NC(=O)[C@H](Cc1ccccc1)NC(=O)[C@H](Cc1c[nH]c2ccccc12)NC(=O)[C@H](CCSC)NC(=O)[C@H](CCCNC(=N)N)NC(=O)[C@H](CO)NC(=O)[C@@H](N)CCSC)C(=O)N[C@@H](CO)C(=O)N[C@@H](Cc1ccccc1)C(=O)N[C@@H](CCCNC(=N)N)C(=O)NCC(=O)O` [compound 69] (H-MSRMWFLISFRG-OH), for which, in data set [1], the “β-Cat FP Hill slope” value worked out at 1.64 and the pKd is > 6.40. Also, the viability in data set [2] was 99.7%. Also, in data set [3], the pEC50 is < 4.52.

With `CSCC[C@H](NC(=O)[C@H](CCCNC(=N)N)NC(=O)[C@H](CO)NC(=O)[C@@H](N)CCSC)C(=O)N[C@@H](Cc1c[nH]c2ccccc12)C(=O)N[C@@H](Cc1ccccc1)C(=O)N[C@@H](CC(C)C)C(=O)N[C@@H](CC(N)=O)C(=O)N[C@@H](CO)C(=O)N[C@@H](Cc1ccccc1)C(=O)N[C@@H](Cc1c[nH]c2ccccc12)C(=O)NCC(=O)O` [compound 70] (H-MSRMWFLNSFWG-OH), the pKd in data set [1] is < 4.52. The viability in data set [2] worked out at 98.5%. Besides, the negative logarithm of the EC50 (pEC50) in data set [3] is < 4.52.
